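The compound was tested at five concentrations on cells cultured in 96-well plates, with a 48-hour exposure period. GI50: concentration for 50% inhibition of growth. TGI denotes the concentration required for complete inhibition of growth.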
Key:
Assay in all cases: NCI tumour cell line growth inhibition, 48 h
786-0 renal = test system: 786-0 renal
A549 NSCLC = test system: A549 NSCLC
K-562 leukemia = test system: K-562 leukemia
MALME-3M melanoma = test system: MALME-3M melanoma
NCI-H522 lung = test system: NCI-H522 lung
SK-MEL-2 melanoma = test system: SK-MEL-2 melanoma
SK-MEL-5 melanoma = test system: SK-MEL-5 melanoma
SNB-19 CNS = test system: SNB-19 CNS
SNB-75 CNS = test system: SNB-75 CNS
TK-10 renal = test system: TK-10 renal

Row | SMILES | GI50 (786-0 renal) | TGI (786-0 renal) | GI50 (A549 NSCLC) | TGI (A549 NSCLC) | GI50 (K-562 leukemia) | TGI (K-562 leukemia) | GI50 (MALME-3M melanoma) | TGI (MALME-3M melanoma) | GI50 (NCI-H522 lung) | TGI (NCI-H522 lung) | GI50 (SK-MEL-2 melanoma) | TGI (SK-MEL-2 melanoma) | GI50 (SK-MEL-5 melanoma) | TGI (SK-MEL-5 melanoma) | GI50 (SNB-19 CNS) | TGI (SNB-19 CNS) | GI50 (SNB-75 CNS) | TGI (SNB-75 CNS) | GI50 (TK-10 renal) | TGI (TK-10 renal)
1 | Cc1c(C)c2ccc(OC/C=C3\CCC(=O)O3)cc2oc1=O | 5.35 µM | 20.8 µM | 16.9 µM | 31.9 µM | 29.1 µM | 88.7 µM | 11.9 µM | 26.7 µM | 10.2 µM | 23.7 µM | 14.2 µM | 30.7 µM | 17.4 µM | 32.8 µM | 17.2 µM | 35.9 µM | 12.3 µM | 24.8 µM | 9.79 µM | 23 µM
2 | CCO[C@@H]1C2C=CC(C2)[C@H]1[N+](=O)[O-] (stereo not given in full) |  | > 100 µM |  | > 100 µM |  | > 100 µM |  | > 100 µM |  | > 100 µM |  | > 100 µM |  | > 100 µM |  | > 100 µM |  | > 100 µM |  | > 100 µM
3 | Fc1ccc(Nc2nc(NCCNc3ccnc4cc(Cl)ccc34)nc(N3CCOCC3)n2)cc1 | 3.35 µM | 15.3 µM | 10.5 µM | 25.1 µM | 2.91 µM | 10.3 µM | 2.76 µM | 4.52 µM | 4.25 µM | 15.3 µM | 2.2 µM | 4.51 µM | 2.15 µM | 4.62 µM | 12.4 µM | 25.9 µM | 3.13 µM | 16.2 µM | 10.3 µM | 22.7 µM
4 | O=C(O)CCC1CCc2cccc3occ1c23 (stereo not given) |  | > 100 µM |  | > 100 µM |  | > 100 µM |  | > 100 µM |  | > 100 µM |  | > 100 µM |  | > 100 µM |  | > 100 µM |  | > 100 µM |  | > 100 µM
5 | O=c1[nH]cnc2c(C3OC(CO)C(O)C3O)scc12 (stereo not given) | > 100 µM | > 100 µM | > 100 µM | > 100 µM | 31.5 µM | > 100 µM | 13.8 µM | > 100 µM | > 100 µM | > 100 µM | 44.8 µM | > 100 µM | > 100 µM | > 100 µM | > 100 µM | > 100 µM | > 100 µM | > 100 µM | 11.6 µM | > 100 µM
6 | COc1cc2cc(Oc3ccc(NC(=O)c4ccc(Cl)c(C(F)(F)F)c4)cc3)c(C)nc2cc1OC | 12.1 µM | > 100 µM | 10.3 µM | > 100 µM | 9.14 µM | > 100 µM | 28.6 µM | 95.1 µM | 8.78 µM | 83.3 µM | 18.3 µM | 51.1 µM | 10.6 µM | 27.1 µM | 24.6 µM | > 100 µM | 16.4 µM | > 100 µM | 12.4 µM | > 100 µM
7 | CC(=O)NC(CCCN(Cc1ccccc1)C(=O)N(CCCl)N=O)C(=O)NCc1ccccc1 (stereo not given) |  | > 58.7 µM |  | > 100 µM |  | > 100 µM |  | > 75.6 µM |  | > 80.6 µM |  | > 94.8 µM |  | > 76.7 µM |  | > 100 µM |  | 63.9 µM |  | > 100 µM
8 | O=C(Cc1ccccc1)N/N=C(\C1=Nc2ccc([N+](=O)[O-])cc2NC1O)C(O)c1ccc([N+](=O)[O-])cc1 (stereo not given) |  | > 100 µM |  | > 100 µM |  | > 100 µM |  | > 100 µM |  | > 100 µM |  | > 100 µM |  | > 100 µM |  | > 100 µM |  | > 100 µM |  | > 100 µM
9 | CN(C)c1ccc(N=Nc2c([O-])ccc3ccccc23)cc1.[C-]#[O+].[C-]#[O+].[Ir] | 26.4 µM | > 56.3 µM | > 46.6 µM | > 69.3 µM | 29.4 µM | > 100 µM | 15.7 µM | 33.4 µM | 7.83 µM | 23.5 µM | 23.8 µM | 48.2 µM | 24.9 µM | > 57.7 µM | > 100 µM | > 100 µM | 54.8 µM | > 100 µM | 23.8 µM | 51.7 µM
10 | O=C(NN1C(=O)CSC1c1ccc(Cl)cc1)c1[nH]c2ccc(F)cc2c1-c1ccccc1 (stereo not given) | 1.89 µM | 3.6 µM | 3.58 µM | 15.6 µM | 2.43 µM | 9.51 µM | 6.03 µM | > 42.8 µM | 4.34 µM | 14.8 µM | 9.61 µM | 26.3 µM | 5.92 µM | 16 µM | 3.79 µM | 15.5 µM | 5.04 µM | 21 µM | 2.31 µM | 5.52 µM
11 | COC(=O)C(=O)C(C(=O)C=C(C)C)C(=O)C(=O)Nc1cccc(C(C)=O)c1 (stereo not given) |  | > 100 µM |  | > 100 µM |  | > 100 µM |  | > 100 µM |  | > 100 µM |  | > 100 µM |  | > 100 µM |  | > 100 µM |  | > 100 µM |  | > 100 µM
12 | Cc1ncc([N+](=O)[O-])n1CCNC(=O)CCCn1cnc([N+](=O)[O-])n1 |  | > 100 µM |  | > 100 µM |  | > 100 µM |  | > 100 µM |  | > 100 µM |  | > 100 µM |  | > 100 µM |  | > 100 µM |  | > 100 µM |  | > 69.5 µM
13 | C/C(=N\NC(N)=O)C(CN(C)C)C(c1ccccc1)c1c(O)c2ccccc2oc1=O (stereo not given) |  | > 100 µM |  | > 100 µM |  | > 100 µM |  | > 100 µM |  | > 100 µM |  | > 100 µM |  | > 100 µM |  | > 100 µM |  | > 100 µM |  | > 100 µM
14 | O=[N+]([O-])c1ccc(CS(=O)Cc2ccccc2)cc1 (stereo not given) |  | > 100 µM |  | > 100 µM |  | > 100 µM |  | > 100 µM |  | > 100 µM |  | > 100 µM |  | > 100 µM |  | > 100 µM |  | > 100 µM |  | > 100 µM
15 | Cn1cc(-c2ccc(CNc3cc(-c4cnc5cc(OCCCN6CCCC6)ccn45)ncn3)cc2)cn1 | 1.49 µM | 2.91 µM | 1.73 µM | 3.49 µM | 2.62 µM | > 100 µM | 1.28 µM | 2.94 µM | 18.6 µM | 37.8 µM | 15.5 µM | 30.4 µM | 1.51 µM | 2.85 µM | 2.5 µM | 8.43 µM | 1.79 µM | 7.78 µM | 23.7 µM | 39.1 µM
16 | O=C1c2ccccc2C(=O)C1C(c1ccc([N+](=O)[O-])cc1)C1C(=O)c2ccccc2C1=O |  | > 100 µM |  | > 100 µM |  | > 100 µM |  | > 100 µM |  | > 100 µM |  | > 100 µM |  | > 100 µM |  | > 100 µM |  | > 100 µM |  | > 100 µM
